Laboratory results: ChEMBL document CHEMBL5346901, “Discovery of potent Plasmodium falciparum protein kinase 6 (PfPK6) inhibitors with a type II inhibitor pharmacophore” (Eur J Med Chem, 2023)
≈ marks a conversion by molar mass, not a printed value. Calls of active or inactive are those of the source. The rule behind the calls is not given here.

Tests used:
[1] = tested on: Plasmodium falciparum; assay: Inhibition of plasmodium falciparum PKB assessed as remaining activity at 1 uM incubated for 2 hrs by luciferin-based luminescence assay relative to control
[2] = tested on: Plasmodium falciparum; assay: Inhibition of plasmodium falciparum PK5 assessed as remaining activity at 1 uM incubated for 2 hrs by luciferin-based luminescence assay relative to control
[3] = tested on: Plasmodium falciparum; assay: Inhibition of plasmodium falciparum CDPK2 assessed as remaining activity at 1 uM incubated for 2 hrs by luciferin-based luminescence assay relative to control
[4] = Microsomal stability in human liver microsomes assessed as parent compound remaining at 5 uM measured after 30 mins in presence of NADPH; assay type: ADME, Microsome; settings: 0.5 h
[5] = tested on: Plasmodium falciparum; assay: Inhibition of plasmodium falciparum CDPK5 assessed as remaining activity at 1 uM incubated for 2 hrs by luciferin-based luminescence assay relative to control
[6] = tested on: Plasmodium berghei; assay: Antimalarial activity against liver stage Plasmodium berghei ANKA sporozoites in human HepG2 cells assessed as reduction in parasite load measured after 44 hrs by […] reagent based […] analysis; assay type: functional, organism-based
[7] = target: T1, Glycogen synthase kinase 3 (Plasmodium falciparum (isolate 3D7)) (UniProt O77344); assay: Inhibition of plasmodium falciparum GSK3 assessed as remaining activity at 1 uM incubated for 2 hrs by luciferin-based luminescence assay relative to control
T1 sequence (whole entry): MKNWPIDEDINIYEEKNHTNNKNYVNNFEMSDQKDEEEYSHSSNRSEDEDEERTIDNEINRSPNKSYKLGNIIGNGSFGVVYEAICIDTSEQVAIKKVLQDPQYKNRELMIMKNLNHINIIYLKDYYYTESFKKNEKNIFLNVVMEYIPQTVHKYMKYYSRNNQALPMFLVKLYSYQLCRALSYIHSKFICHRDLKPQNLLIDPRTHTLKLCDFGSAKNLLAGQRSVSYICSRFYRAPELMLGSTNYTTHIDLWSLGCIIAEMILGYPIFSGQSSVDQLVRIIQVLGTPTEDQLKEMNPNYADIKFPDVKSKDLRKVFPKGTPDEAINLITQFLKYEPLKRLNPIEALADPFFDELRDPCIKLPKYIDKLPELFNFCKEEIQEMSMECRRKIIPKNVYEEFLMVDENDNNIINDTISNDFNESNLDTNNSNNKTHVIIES

[8] = tested on: Plasmodium falciparum; assay: Antimalarial activity against blood stage Plasmodium falciparum 3D7 assessed as reduction in parasite growth incubated for 72 hrs by SYBR Green dye based fluorescence assay; assay type: functional, organism-based; settings: 3D7, 72 h
[9] = Microsomal stability in mouse liver microsomes assessed as parent compound remaining at 5 uM measured after 30 mins in presence of NADPH; assay type: ADME, Microsome; settings: 0.5 h
[10] = tested on: Plasmodium falciparum; assay: Inhibition of plasmodium falciparum ARK1 assessed as remaining activity at 1 uM incubated for 2 hrs by luciferin-based luminescence assay relative to control
[11] = Kinetic solubility of the compound at pH 7.4; assay type: physicochemical; settings: buffer, read-out: Kinetic_solubility
[12] = tested on: HepG2; assay: Cytotoxicity against human HepG2 cells infected with liver stage Plasmodium berghei ANKA sporozoites assessed as reduction in cell viability measured after 44 hrs by […] assay; assay type: toxicity, cell-based; settings: hepg2, 44 h
[13] = Apparent permeability of compound by PAMPA assay; assay type: ADME
[14] = tested on: Plasmodium falciparum; assay: Inhibition of plasmodium falciparum NEK3 assessed as remaining activity at 1 uM incubated for 2 hrs by luciferin-based luminescence assay relative to control
[15] = tested on: HepG2; assay: Cytotoxicity against human HepG2 cells assessed as reduction in cell viability by CellTiter-Glo assay; assay type: toxicity, cell-based
[16] = tested on: Plasmodium falciparum; assay: Inhibition of plasmodium falciparum NEK1 assessed as remaining activity at 1 uM incubated for 2 hrs by luciferin-based luminescence assay relative to control
[17] = tested on: Plasmodium falciparum; assay: Inhibition of plasmodium falciparum PK5 assessed as remaining activity at 1 uM by Kinomescan method relative to control
[18] = tested on: Plasmodium falciparum; assay: Inhibition of plasmodium falciparum PK9 assessed as remaining activity at 1 uM incubated for 2 hrs by luciferin-based luminescence assay relative to control
[19] = target: Calcium-dependent protein kinase 1 (Plasmodium falciparum) (UniProt P62344); assay: Inhibition of plasmodium falciparum CDPK1 assessed as remaining activity at 1 uM by Kinomescan method relative to control; settings: time 2.0 hrs
[20] = tested on: Plasmodium falciparum; assay: Inhibition of plasmodium falciparum ARK3 assessed as remaining activity at 1 uM incubated for 2 hrs by luciferin-based luminescence assay relative to control
[21] = target: T2, Cdk-related protein kinase 6 (Plasmodium falciparum, UniProt O77239)
T2 sequence (O77239 whole entry): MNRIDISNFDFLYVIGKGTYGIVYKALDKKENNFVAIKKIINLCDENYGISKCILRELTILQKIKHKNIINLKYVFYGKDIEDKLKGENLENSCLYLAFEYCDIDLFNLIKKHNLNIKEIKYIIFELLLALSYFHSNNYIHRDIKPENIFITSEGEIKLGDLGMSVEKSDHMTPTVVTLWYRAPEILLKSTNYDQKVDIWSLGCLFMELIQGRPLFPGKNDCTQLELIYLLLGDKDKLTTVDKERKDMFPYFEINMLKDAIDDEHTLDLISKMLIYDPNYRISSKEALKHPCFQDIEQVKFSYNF
Description: Inhibition of N-terminal 6His-tagged plasmodium falciparum PK6 expressed in Escherichia coli BL21(DE3) incubated for 15 mins in presence of [gamma-32p]ATP and ATP by SDS-PAGE based autoradiography analysis

Chain of Calcium-dependent protein kinase 1 (Plasmodium falciparum) (P62344 2-524 limits assumed): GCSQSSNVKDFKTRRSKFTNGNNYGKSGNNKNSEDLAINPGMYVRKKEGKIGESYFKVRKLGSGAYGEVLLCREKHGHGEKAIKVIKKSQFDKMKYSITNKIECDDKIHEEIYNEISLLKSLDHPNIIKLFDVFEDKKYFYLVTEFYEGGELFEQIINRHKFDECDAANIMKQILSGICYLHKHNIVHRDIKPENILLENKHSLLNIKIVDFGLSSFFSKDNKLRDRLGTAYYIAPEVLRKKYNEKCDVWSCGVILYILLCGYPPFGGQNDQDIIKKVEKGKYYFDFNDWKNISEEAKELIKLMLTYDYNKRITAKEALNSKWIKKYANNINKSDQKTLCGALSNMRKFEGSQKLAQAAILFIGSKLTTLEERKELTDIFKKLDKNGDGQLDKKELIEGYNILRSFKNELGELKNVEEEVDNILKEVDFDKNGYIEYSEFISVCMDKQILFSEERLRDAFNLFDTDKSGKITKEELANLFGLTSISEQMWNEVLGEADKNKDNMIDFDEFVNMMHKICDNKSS

Structure (SMILES) | Activity [1] [%] | Activity [2] [%] | Activity [3] [%] | Stability [4] [%] | Activity [5] [%] | Activity [6] | Activity [7] [%] | EC50 [8] [µM] | Stability [9] [%] | Activity [10] [%] | solubility kinetic [11] [µM] | CC50 [12] [µM] | Papp [13] | Activity [14] [%] | CC50 [15] [µM] | Activity [16] [%] | Activity [17] [%] | Activity [18] [%] | Activity [19] [%] | Activity [20] [%] | also measured
COc1cc2nccc(Oc3ccc(NC(=O)Nc4ccc(C=C5CCNCC5)cc4)c(F)c3)c2cc1OC | 38 | 100 | 96 | 88.6 | 98 | inactive | 100 | 0.14 | 86.7 | 98 | 7.4 (≈ 3.91 µg/mL) | 6.62 | < 0.709 10^-6 cm/s | 84 | 2.57 | 100 |  |  |  |  | 
COc1cc2nccc(Oc3ccc(NC(=O)Nc4ccc(CC5CCNCC5)c(C(F)(F)F)c4)c(F)c3)c2cc1OC | 21 | 94 | 64 | 98.1 | 27 |  | 34 | 0.039 |  | 100 | 2.1 (≈ 1.26 µg/mL) | 1.29 | 0.734 10^-6 cm/s | 7 | 1.29 | 100 | 80 | 89 | 1.1 | 87 | EC50 ([6]; HepG2, 44 h): 0.22 µM
COc1cc2nccc(Oc3ccc(NC(=O)Nc4ccc(OC5CCN(C)CC5)c(C(F)(F)F)c4)c(F)c3)c2cc1OC | 20 | 94 | 78 | 88.6 | 25 | inactive | 30 | 0.04 | 69.7 | 94 | 1.5 (≈ 0.922 µg/mL) | 0.41 | < 0.513 10^-6 cm/s | 6 | 1 | 100 |  | 79 |  | 97 | 
COc1cc2nccc(Oc3ccc(NC(=O)Nc4ccc(CC5CCNCC5)cc4)c(F)c3)c2cc1OC | 30 | 97 | 88 |  | 91 | inactive | 97 | 0.16 | 85.8 | 97 | 10.9 (≈ 5.78 µg/mL) | 3.29 | < 0.669 10^-6 cm/s | 82 | 4.39 | 100 | 84 | 99 | 51 |  | 
Cn1cnc2c(NCc3ccccc3)nc(NCCO)nc21 [OLOMOUCINE] |  |  |  |  |  |  |  |  |  |  |  |  |  |  |  |  |  |  |  |  | IC50 [21]: 180 µM
